Data reported in US20110288045A1, “WET GRANULATION OF TENOFOVIR, EMTRICITABINE AND EFAVIRENZ” (ULTIMORPHIX TECHNOLOGIES B.V., priority 2008, published 2011).
Entries after “also recorded” stand apart in the source; their conditions may differ. Structures can show the parent of a compound that is named as a salt. Where two headings read alike, the source gives them in different places.

How the values were obtained:
[1] = Stability testing at 33 weeks of wet granulated Truvada and Atripla combination formulations, by HPLC; format: physicochemical
Procedure: Stability Testing at 33 Weeks
The stability of the Truvada and Atripla combination formulations after wet granulation was checked by HPLC after 33 weeks storage under 75% Relative Humidity (RH) and 40° C.
Two types of formulations were prepared for each combination, one containing the Tenofovir Disoproxil Fumarate and the other one containing the Tenofovir Disoproxil Hemifumarate co-crystal. In both combinations, water content of 30 and 40% was prepared.

[2] = wet granulation of the three drugs (Efavirenz, Tenofovir DF, Emtricitabine) together; US2007099902A1, EP1890681; cited from earlier work
[3] = HPLC assay for degradation products after wet granulation; format: physicochemical; conditions: for Impurity peaks of Tenofovir disoproxil at 26.57 and 36.0 min (HPLC): wet granulation with Emtricitabine (Table 1)
Procedure: Analytical Methods: HPLC Assay for Degradation Product
Emtricitabine/Tenofovir disoproxil (Fumarate or Hemifumarate) granules are assayed by HPLC for Emtricitabine and Tenofovir disoproxil (Fumarate or Hemifumarate) using external references as described in US2007/0077295. The presence of degradation products are determined by area normalization. The identities of Emtricitabine and Tenofovir disoproxil (Fumarate or Hemifumarate) are confirmed by comparison of their retention times with those of the reference standards.
Approximately 6520 mg of Emtricitabine/Tenofovir disoproxil (Fumarate or Hemifumarate) granules was weighted into a 1 L volumetric flask. Added was 400 mL 25 mM phosphate buffer, pH 3 to the volumetric flask. Mixing was performed by stirring vigorously for about 75 minutes. 50:50 acetonitrile: methanol was added to the flask to approximately 2 cm below the 1 L mark. The solution was equilibrated to ambient temperature by mixing for 1 hour. The volume was diluted to 1 L with 50:50 acetonitrile: methanol and mixed well by stirring with a magnetic stirring bar. Using a 0.45 μm syringe filter with a syringe, approximately 10 mL for the next dilution was filtered. The first 2 mL of the filtrate was discarded. A class A pipette was used to transfer 5.0 mL of the filtrate into a 50 mL volumetric flask and dilute the to volume with sample solvent (40:30:30). […]
A composition comprising the ingredients and ratios as listed in table 1 are subjected to a standard wet granulation process with respectively 30% and 40% w/w water. The quality of the granulation was assessed visually. […]
A composition comprising the ingredients and ratios as listed in table 2 were subjected to a standard wet granulation process with respectively 30% and 40% w/w water. The quality of the granulation was assessed visually. […]
A composition comprising the ingredients and ratios as listed in Table 1 are subjected to a standard wet granulation process with respectively 30% and 40% w/w water. The quality of the granulation was assessed visually. […]

Molecule	Degradation of Tenofovir disoproxil salt (HPLC chromatogram) [1]	Stability of Tenofovir DF [2]	Chemical stability during wet granulation (overall conclusion) ([3]; Truvada (table 1) and Atripla (table 2) formulations, 30% and 40% w/w water)	Impurity peaks of Tenofovir disoproxil at 26.57 and 36.0 min (HPLC) ([3]; 30% w/w high pure water)	Impurity peaks of Tenofovir disoproxil at 26.57 and 36.0 min (HPLC) ([3]; 40% w/w high pure water)	Degradation of Tenofovir disoproxil salt (HPLC chromatogram) ([1]; Atripla sample prepared with 30% water, 33 weeks, 75% RH, 40° C.)	Degradation of Tenofovir disoproxil salt (HPLC chromatogram) ([1]; Atripla sample prepared with 40% water, 33 weeks, 75% RH, 40° C.)	Degradation of Tenofovir disoproxil salt (HPLC chromatogram) ([1]; Truvada sample prepared with 30% water, 33 weeks, 75% RH, 40° C.)	Degradation of Tenofovir disoproxil salt (HPLC chromatogram) ([1]; Truvada sample prepared with 40% water, 33 weeks, 75% RH, 40° C.)
CC(C)OC(=O)OCOP(=O)(CO[C@H](C)Cn1cnc2c(N)ncnc21)OCOC(=O)OC(C)C [Tenofovir disoproxil fumarate]	to a large extent	degraded rapidly; also recorded: unstable							
Tenofovir disoproxil hemifumarate			stable	not observed	not observed	no degradation	less degradation	small degradation	small degradation
